# Data from patent US20240025862A1, “SUBSTITUTED N-PHENYLURACILS AND SALTS THEREOF, AND USE THEREOF AS HERBICIDAL ACTIVE SUBSTANCES” (Bayer Aktiengesellschaft, priority 2020, published 2024).
# How the values were obtained:
# Assay type in all cases: in vivo
# Oryza sativa (ORYSA) = test: Post-emergence crop plant compatibility, greenhouse pot test (also comparative test C); settings: vs untreated controls
# Outline: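 Visual damage versus untreated plants (0% = like control, 100% = plants died) was scored about 3 weeks after a post-emergence spray in greenhouse pots. Treatment: one-leaf stage, WP or EC in water at 600 l/ha with 0.5% additive; a/b/c mark different dosages on the same crop.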
# Veronica persica (VERPE) = test: Post-emergence herbicidal action, greenhouse pot test
# Outline: (§1)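 Activity was scored by eye about 3 weeks after treatment against untreated plants, where 100% means dead plants and 0% means no difference. Plants at the one-leaf stage received a foliar spray of WP or EC formulations in water plus 0.5% additive (600 l/ha, up to 20 g/ha). Plants were grown in sandy loam pots in a greenhouse for 2–3 weeks before spraying.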
# [1] = system: Pharbitis purpurea (PHBPU); test: as above
# Outline: as §1
# [2] = system: Polygonum convolvulus (POLCO); test: as above
# Outline: as §1
# Avena fatua (AVEFA) = test: as above; settings: 20 g/ha, rated visually after about 3 weeks vs untreated controls, 100% = plants have died
# Outline: as §1
# Viola tricolor (VIOTR) = test: as above
# Outline: as §1
# [3] = system: Abutilon theophrasti (ABUTH); test: as above; settings: rated visually after about 3 weeks vs untreated controls, 100% = plants have died
# Outline: as §1
# [4] = system: Amaranthus retroflexus (AMARE); test: as above; settings: rated visually after about 3 weeks vs untreated controls, 100% = plants have died
# Outline: as §1
# [5] = system: Matricaria inodora (MATIN); test: Post-emergence herbicidal action, greenhouse pot test (also comparative test C)
# Outline: (§2)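 Visual rating against untreated controls, about 3 weeks after spraying, from 0% (like control) to 100% (plants dead). Weeds were treated at the one-leaf stage, 2–3 weeks after sowing in sandy loam, with aqueous WP/EC spray containing 0.5% additive at 600 l/ha. Doses were ≤20 g/ha, or ≤5 g/ha for comparative test C.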
# Setaria viridis (SETVI) = test: as above
# Outline: as §2
# [6] = system: Alopecurus myosuroides (ALOMY); test: as above; settings: rated visually after about 3 weeks vs untreated controls, 100% = plants have died
# Outline: as §2
# [7] = system: Echinochloa crus-galli (ECHCG); test: as above
# Outline: as §2
# Zea mays (ZEAMX) = test: Post-emergence crop plant compatibility, greenhouse pot test; settings: 1.25 g/ha, vs untreated controls
# Outline: (§3)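 Greenhouse pot test; post-emergence foliar spray at one-leaf stage, WP or EC in water + 0.5% additive, 600 l/ha. Visual rating after ~3 wk, % relative to untreated (0–100%).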
# [8] = system: Triticum aestivum (TRZAS); test: as above; settings: vs untreated controls
# Outline: as §3
structure (smiles),measurement,setting,value
"COCC(C)OC(=O)COc1ccccc1Oc1cc(-n2c(=O)cc(C(F)(F)F)n(C)c2=O)c(F)cc1Cl (stereo not drawn) [I.7-94, 1-Methoxypropan-2-yl (2-{2-chloro-4-fluoro-5-[3-methyl-2,6-dioxo-4-(trifluoromethyl)-3,6-dihydropyrimidin-1(2H)-yl]phenoxy}phenoxy)acetate]",Post-emergence action against ORYSA (crop plant compatibility),Oryza sativa (ORYSA); 1.25 g/ha,0%
same,Post-emergence action against ORYSA (crop plant compatibility),Oryza sativa (ORYSA); 5 g/ha,20%
same,pest or weed control at 1.25 g/ha,"Veronica persica (VERPE); Veronica persica, 504 h, 1.25 g/ha, read-out: Post-emergence action against VERPE",100%
same,pest or weed control at 5 g/ha,"Veronica persica (VERPE); Veronica persica, 504 h, 5 g/ha, read-out: Post-emergence action against VERPE",100%
same,pest or weed control at 20 g/ha,"Veronica persica (VERPE); Veronica persica, 504 h, 20 g/ha, read-out: Post-emergence action against VERPE",100%
same,pest or weed control at 1.25 g/ha,"[1]; Ipomoea purpurea, 504 h, dosage 1.25 g/ha, read-out: Post-emergence action against PHBPU in %",100%
same,pest or weed control at 5 g/ha,"[1]; Ipomoea purpurea, 504 h, dosage 5 g/ha, read-out: Post-emergence action against PHBPU in %",100%
same,pest or weed control at 20 g/ha,"[1]; Ipomoea purpurea, 504 h, dosage 20 g/ha, read-out: Post-emergence action against PHBPU in %",100%
same,pest or weed control at 20 g/ha,"[2]; Fallopia convolvulus, 504 h, dosage 20 g/ha, read-out: Post-emergence action against POLCO in %",100%
same,pest or weed control at 20 g/ha,"Avena fatua (AVEFA); Avena fatua, 504 h, read-out: Post-emergence action at 20 g/ha against AVEFA in %",80%
same,pest or weed control at 1.25 g/ha,"Viola tricolor (VIOTR); Viola tricolor, 504 h, 1.25 g/ha, read-out: Post-emergence action against VIOTR",80%
same,pest or weed control at 5 g/ha,"Viola tricolor (VIOTR); Viola tricolor, 504 h, 5 g/ha, read-out: Post-emergence action against VIOTR",100%
same,pest or weed control at 20 g/ha,"Viola tricolor (VIOTR); Viola tricolor, 504 h, 20 g/ha, read-out: Post-emergence action against VIOTR",100%
same,pest or weed control at 1.25 g/ha,"[3]; Abutilon theophrasti, 504 h, 1.25 g/ha, read-out: Post-emergence action at 1.25 g/ha against ABUTH in %",100%
same,pest or weed control at 5 g/ha,"[3]; Abutilon theophrasti, 504 h, 5 g/ha, read-out: Post-emergence action at 5 g/ha against ABUTH in %",100%
same,pest or weed control at 20 g/ha,"[3]; Abutilon theophrasti, 504 h, 20 g/ha, read-out: Post-emergence action at 20 g/ha against ABUTH in %",100%
same,pest or weed control at 1.25 g/ha,"[4]; Amaranthus retroflexus, 504 h, 1.25 g/ha, read-out: Post-emergence action at 1.25 g/ha against AMARE in %",100%
same,pest or weed control at 5 g/ha,"[4]; Amaranthus retroflexus, 504 h, 5 g/ha, read-out: Post-emergence action at 5 g/ha against AMARE in %",100%
same,pest or weed control at 20 g/ha,"[4]; Amaranthus retroflexus, 504 h, 20 g/ha, read-out: Post-emergence action at 20 g/ha against AMARE in %",100%
same,pest or weed control at 1.25 g/ha,"[5]; Tripleurospermum inodorum, 504 h, dosage 1.25 g/ha, read-out: Post-emergence action against MATIN in %",80%
same,pest or weed control at 5 g/ha,"[5]; Tripleurospermum inodorum, 504 h, dosage 5 g/ha, read-out: Post-emergence action against MATIN in %",80%
same,pest or weed control at 20 g/ha,"[5]; Tripleurospermum inodorum, 504 h, dosage 20 g/ha, read-out: Post-emergence action against MATIN in %",100%
same,pest or weed control at 20 g/ha,"Setaria viridis (SETVI); Setaria viridis, 504 h, 20 g/ha, read-out: Post-emergence action against SETVI",100%
same,pest or weed control at 1.25 g/ha,"Setaria viridis (SETVI); Setaria viridis, 504 h, dosage 1.25 g/ha, read-out: Post-emergence action against SETVI in %",100%
same,pest or weed control at 5 g/ha,"Setaria viridis (SETVI); Setaria viridis, 504 h, dosage 5 g/ha, read-out: Post-emergence action against SETVI in %",100%
same,pest or weed control at 5 g/ha,"[6]; Alopecurus myosuroides, 504 h, 5 g/ha, read-out: Post-emergence action at 5 g/ha against ALOMY in %",80%
same,pest or weed control at 20 g/ha,"[6]; Alopecurus myosuroides, 504 h, 20 g/ha, read-out: Post-emergence action at 20 g/ha against ALOMY in %",80%
same,pest or weed control at 5 g/ha,"[7]; Echinochloa crus-galli, 504 h, dosage 5 g/ha, read-out: Post-emergence action against ECHCG in %",100%
same,pest or weed control at 20 g/ha,"[7]; Echinochloa crus-galli, 504 h, dosage 20 g/ha, read-out: Post-emergence action against ECHCG in %",100%
same,Post-emergence action against ZEAMX (crop plant compatibility),Zea mays (ZEAMX),10%
same,Post-emergence action against TRZAS (crop plant compatibility),[8]; 1.25 g/ha,20%
Cn1c(C(F)(F)F)cc(=O)n(-c2cc(Oc3ccccc3OCC(=O)OCc3cccnn3)c(Cl)cc2F)c1=O [I.7-291],Post-emergence action against ORYSA (crop plant compatibility),Oryza sativa (ORYSA); 1.25 g/ha,20%
same,Post-emergence action against VERPE,Veronica persica (VERPE); 5 g/ha,100%
same,Post-emergence action against VERPE,Veronica persica (VERPE); 20 g/ha,100%
same,Post-emergence action against PHBPU in %,[1]; dosage 1.25 g/ha,100%
same,Post-emergence action against PHBPU in %,[1]; dosage 5 g/ha,100%
same,Post-emergence action against PHBPU in %,[1]; dosage 20 g/ha,100%
same,Post-emergence action against POLCO in %,[2]; dosage 20 g/ha,100%
same,Post-emergence action at 20 g/ha against AVEFA in %,Avena fatua (AVEFA),100%
same,Post-emergence action against VIOTR,Viola tricolor (VIOTR); 1.25 g/ha,100%
same,Post-emergence action against VIOTR,Viola tricolor (VIOTR); 5 g/ha,100%
same,Post-emergence action against VIOTR,Viola tricolor (VIOTR); 20 g/ha,100%
same,Post-emergence action at 1.25 g/ha against ABUTH in %,[3]; 1.25 g/ha,100%
same,Post-emergence action at 5 g/ha against ABUTH in %,[3]; 5 g/ha,100%
same,Post-emergence action at 20 g/ha against ABUTH in %,[3]; 20 g/ha,100%
same,Post-emergence action at 1.25 g/ha against AMARE in %,[4]; 1.25 g/ha,100%
same,Post-emergence action at 5 g/ha against AMARE in %,[4]; 5 g/ha,100%
same,Post-emergence action at 20 g/ha against AMARE in %,[4]; 20 g/ha,100%
same,Post-emergence action against MATIN in %,[5]; dosage 5 g/ha,100%
same,Post-emergence action against MATIN in %,[5]; dosage 20 g/ha,100%
same,Post-emergence action against SETVI,Setaria viridis (SETVI); 20 g/ha,100%
same,Post-emergence action against SETVI in %,Setaria viridis (SETVI); dosage 1.25 g/ha,100%
same,Post-emergence action against SETVI in %,Setaria viridis (SETVI); dosage 5 g/ha,100%
same,Post-emergence action at 5 g/ha against ALOMY in %,[6]; 5 g/ha,80%
same,Post-emergence action at 20 g/ha against ALOMY in %,[6]; 20 g/ha,100%
same,Post-emergence action against ECHCG in %,[7]; dosage 5 g/ha,100%
same,Post-emergence action against ECHCG in %,[7]; dosage 20 g/ha,100%
same,Post-emergence action against ZEAMX (crop plant compatibility),Zea mays (ZEAMX),10%
same,Post-emergence action against TRZAS (crop plant compatibility),[8]; 1.25 g/ha,0%
same,Post-emergence action against TRZAS (crop plant compatibility),[8]; 5 g/ha,0%
Cn1c(C(F)(F)F)cc(=O)n(-c2cc(Oc3ccccc3OCC(=O)OCCOC(F)(F)F)c(Br)cc2F)c1=O [I.8-41],Post-emergence action against ORYSA (crop plant compatibility),Oryza sativa (ORYSA); 1.25 g/ha,0%
same,Post-emergence action against ORYSA (crop plant compatibility),Oryza sativa (ORYSA); 5 g/ha,20%
same,Post-emergence action against VERPE,Veronica persica (VERPE); 5 g/ha,100%
same,Post-emergence action against VERPE,Veronica persica (VERPE); 20 g/ha,100%
same,Post-emergence action against PHBPU in %,[1]; dosage 1.25 g/ha,100%
same,Post-emergence action against PHBPU in %,[1]; dosage 5 g/ha,100%
same,Post-emergence action against PHBPU in %,[1]; dosage 20 g/ha,100%
same,Post-emergence action against POLCO in %,[2]; dosage 1.25 g/ha,80%
same,Post-emergence action against POLCO in %,[2]; dosage 5 g/ha,90%
same,Post-emergence action against POLCO in %,[2]; dosage 20 g/ha,100%
same,Post-emergence action at 20 g/ha against AVEFA in %,Avena fatua (AVEFA),80%
same,Post-emergence action against VIOTR,Viola tricolor (VIOTR); 1.25 g/ha,100%
same,Post-emergence action against VIOTR,Viola tricolor (VIOTR); 5 g/ha,100%
same,Post-emergence action against VIOTR,Viola tricolor (VIOTR); 20 g/ha,100%
same,Post-emergence action at 1.25 g/ha against ABUTH in %,[3]; 1.25 g/ha,80%
same,Post-emergence action at 5 g/ha against ABUTH in %,[3]; 5 g/ha,100%
same,Post-emergence action at 20 g/ha against ABUTH in %,[3]; 20 g/ha,100%
same,Post-emergence action at 1.25 g/ha against AMARE in %,[4]; 1.25 g/ha,100%
same,Post-emergence action at 5 g/ha against AMARE in %,[4]; 5 g/ha,100%
same,Post-emergence action at 20 g/ha against AMARE in %,[4]; 20 g/ha,100%
same,Post-emergence action against MATIN in %,[5]; dosage 1.25 g/ha,90%
same,Post-emergence action against MATIN in %,[5]; dosage 5 g/ha,90%
same,Post-emergence action against MATIN in %,[5]; dosage 20 g/ha,100%
same,Post-emergence action against SETVI,Setaria viridis (SETVI); 20 g/ha,100%
same,Post-emergence action against SETVI in %,Setaria viridis (SETVI); dosage 1.25 g/ha,100%
same,Post-emergence action against SETVI in %,Setaria viridis (SETVI); dosage 5 g/ha,100%
same,Post-emergence action at 5 g/ha against ALOMY in %,[6]; 5 g/ha,80%
same,Post-emergence action at 20 g/ha against ALOMY in %,[6]; 20 g/ha,100%
same,Post-emergence action against ECHCG in %,[7]; dosage 5 g/ha,90%
same,Post-emergence action against ECHCG in %,[7]; dosage 20 g/ha,100%
same,Post-emergence action against ZEAMX (crop plant compatibility),Zea mays (ZEAMX),20%
same,Post-emergence action against TRZAS (crop plant compatibility),[8]; 1.25 g/ha,0%
same,Post-emergence action against TRZAS (crop plant compatibility),[8]; 5 g/ha,20%
